Broadly, the IC50 is the concentration that inhibits the measured activity by half.

Each structure is given as a SMILES string.

Sequence of PARP7 (Q7Z3E1 whole entry): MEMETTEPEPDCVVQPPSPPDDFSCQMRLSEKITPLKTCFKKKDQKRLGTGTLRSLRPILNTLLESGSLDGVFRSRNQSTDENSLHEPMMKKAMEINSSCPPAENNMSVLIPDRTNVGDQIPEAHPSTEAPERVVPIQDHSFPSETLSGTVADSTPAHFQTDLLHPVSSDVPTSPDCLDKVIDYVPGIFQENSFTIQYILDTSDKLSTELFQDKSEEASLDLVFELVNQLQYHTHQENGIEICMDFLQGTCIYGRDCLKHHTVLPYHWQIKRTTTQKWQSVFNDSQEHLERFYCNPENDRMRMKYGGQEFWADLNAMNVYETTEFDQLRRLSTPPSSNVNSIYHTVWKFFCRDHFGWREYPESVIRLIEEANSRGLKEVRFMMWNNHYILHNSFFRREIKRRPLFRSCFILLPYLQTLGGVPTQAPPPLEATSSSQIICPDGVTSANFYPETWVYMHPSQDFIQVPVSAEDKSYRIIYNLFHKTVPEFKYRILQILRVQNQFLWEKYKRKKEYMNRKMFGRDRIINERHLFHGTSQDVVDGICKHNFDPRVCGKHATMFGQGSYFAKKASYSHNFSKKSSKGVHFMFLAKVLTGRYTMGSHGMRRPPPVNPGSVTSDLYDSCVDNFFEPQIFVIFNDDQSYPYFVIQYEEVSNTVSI

The assay concerns the target PARP7 (Homo sapiens (Human), UniProt Q7Z3E1). Description: Enzymatic assay for inhibition of PARP7: TR-FRET displacement of biotinylated Probe A from the TIPARP active site. The class given is binding. Particulars: Table A-1. An outline of the steps: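 Displacement of biotinylated Probe A from TIPARP was measured as the 665/615 nm time-resolved FRET ratio (excitation 320 nm, 90 μs delay) after a further 30 min at 25 °C. Inhibition across compound concentrations was fitted by dose-response regression, with the Hill slope free or fixed at 1 (3-parameter fit).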
For the molecule `O=C(c1cccc(OCC2c3ccccc3CN2c2cn[nH]c(=O)c2C(F)(F)F)c1)N1CCN(c2ccccn2)CC1` (stereo not drawn) [Example 341, 5-(1-((3-(4-(Pyridin-2-yl)piperazine-1-carbonyl)phenoxy)methyl)isoindolin-2-yl)-4-(trifluoromethyl)pyridazin-3(2H)-one], the IC50 was below 100 nM. The result for `O=C(O)c1cccc(OCC2c3ccccc3CN2c2cn[nH]c(=O)c2C(F)(F)F)c1` (stereo not drawn) [Example 342, 3-((2-(6-Oxo-5-(trifluoromethyl)-1,6-dihydropyridazin-4-yl)isoindolin-1-yl)methoxy)benzoic acid] reads at least 1000 nM; that for `CN(CC1c2ccccc2CN1c1cn[nH]c(=O)c1C(F)(F)F)c1cccc(C(=O)N2CCN(c3ccc(C#N)cn3)CC2)c1` (stereo not drawn) [Example 343, 6-(4-(3-(Methyl((2-(6-oxo-5-(trifluoromethyl)-1,6-dihydropyridazin-4-yl)isoindolin-1-yl)methyl)amino)benzoyl)piperazin-1-yl)nicotinonitrile], at least 1000 nM.

`CN(CC1c2ccccc2CN1c1cn[nH]c(=O)c1C(F)(F)F)c1cccc(C(=O)N2CCN(c3ccccn3)CC2)c1` (stereo not drawn) [Example 344, 5-(1-((Methyl(3-(4-(pyridin-2-yl)piperazine-1-carbonyl)phenyl)amino)methyl)isoindolin-2-yl)-4-(trifluoromethyl)pyridazin-3(2H)-one] gave an IC50 of 100 to 1000 nM. The result for `CN(CC1c2ccccc2CN1c1cn[nH]c(=O)c1C(F)(F)F)c1cccc(C(=O)O)c1` (stereo not drawn) [Example 345, 3-(Methyl((2-(6-oxo-5-(trifluoromethyl)-1,6-dihydropyridazin-4-yl)isoindolin-1-yl)methyl)amino)benzoic acid] reads at least 1000 nM; that for `COc1nccc2c1CN(c1cn[nH]c(=O)c1C(F)(F)F)C2` [Example 346, 5-(4-Methoxy-1,3-dihydro-2H-pyrrolo[3,4-c]pyridin-2-yl)-4-(trifluoromethyl)pyridazin-3(2H)-one], below 100 nM. The value for `O=c1[nH]ncc(N2Cc3cccc(OC4CCN(CC(c5ccccc5)c5ccccc5)CC4)c3C2)c1C(F)(F)F` [Example 347, 5-(4-((1-(2,2-Diphenylethyl)piperidin-4-yl)oxy)isoindolin-2-yl)-4-(trifluoromethyl)pyridazin-3(2H)-one] was below 100 nM; that for `N#Cc1ccc(N2CCN(C(=O)c3cccc(NCC4c5ccccc5CN4c4cn[nH]c(=O)c4C(F)(F)F)c3)CC2)nc1` (stereo not drawn) [Example 348, 6-(4-(3-(((2-(6-Oxo-5-(trifluoromethyl)-1,6-dihydropyridazin-4-yl)isoindolin-1-yl)methyl)amino)benzoyl)piperazin-1-yl)nicotinonitrile] was below 100 nM; that for `O=C(c1cccc(OC[C@H]2c3ccccc3CN2c2cn[nH]c(=O)c2C(F)(F)F)c1)N1CCN(c2ccccn2)CC1` [Example 350, (R)-5-(1-((3-(4-(Pyridin-2-yl)piperazine-1-carbonyl)phenoxy)methyl)isoindolin-2-yl)-4-(trifluoromethyl)pyridazin-3(2H)-one] was 100 to 1000 nM. `O=C(c1cccc(NCC2c3ccccc3CN2c2cn[nH]c(=O)c2C(F)(F)F)c1)N1CCN(c2ccccn2)CC1` (stereo not drawn) [Example 351, 5-(1-(((3-(4-(Pyridin-2-yl)piperazine-1-carbonyl)phenyl)amino)methyl)isoindolin-2-yl)-4-(trifluoromethyl)pyridazin-3(2H)-one] displayed an IC50 of 100 to 1000 nM. Molecule `N#Cc1ccc(N2CCN(C(=O)c3cncc(OCC4c5ccccc5CN4c4cn[nH]c(=O)c4C(F)(F)F)c3)CC2)nc1` (stereo not drawn) [Example 352, 6-(4-(5-((2-(6-Oxo-5-(trifluoromethyl)-1,6-dihydropyridazin-4-yl)isoindolin-1-yl)methoxy)nicotinoyl)piperazin-1-yl)nicotinonitrile] gave an IC50 below 100 nM. Molecule `N#Cc1ccc(N2CCN(C(=O)c3cncc(OC[C@@H]4c5ccccc5CN4c4cn[nH]c(=O)c4C(F)(F)F)c3)CC2)nc1` [Example 353, (S)-6-(4-(5-((2-(6-Oxo-5-(trifluoromethyl)-1,6-dihydropyridazin-4-yl)isoindolin-1-yl)methoxy)nicotinoyl)piperazin-1-yl)nicotinonitrile] gave an IC50 below 100 nM. The value for `N#Cc1ccc(N2CCN(C(=O)c3cncc(OC[C@H]4c5ccccc5CN4c4cn[nH]c(=O)c4C(F)(F)F)c3)CC2)nc1` [Example 354, (R)-6-(4-(5-((2-(6-Oxo-5-(trifluoromethyl)-1,6-dihydropyridazin-4-yl)isoindolin-1-yl)methoxy)nicotinoyl)piperazin-1-yl)nicotinonitrile] was 100 to 1000 nM; that for `N#Cc1ccc(N2CCN(C(=O)c3cc(OCC4c5ccccc5CN4c4cn[nH]c(=O)c4C(F)(F)F)ccn3)CC2)nc1` (stereo not drawn) [Example 355, 6-(4-(4-((2-(6-Oxo-5-(trifluoromethyl)-1,6-dihydropyridazin-4-yl)isoindolin-1-yl)methoxy)picolinoyl)piperazin-1-yl)nicotinonitrile] was below 100 nM; that for `N#Cc1ccc(N2CCN(C(=O)c3cc(OC[C@H]4c5ccccc5CN4c4cn[nH]c(=O)c4C(F)(F)F)ccn3)CC2)nc1` [Example 356, (R)-6-(4-(4-((2-(6-Oxo-5-(trifluoromethyl)-1,6-dihydropyridazin-4-yl)isoindolin-1-yl)methoxy)picolinoyl)piperazin-1-yl)nicotinonitrile] was 100 to 1000 nM. The result for `N#Cc1ccc(N2CCN(C(=O)c3cc(OC[C@@H]4c5ccccc5CN4c4cn[nH]c(=O)c4C(F)(F)F)ccn3)CC2)nc1` [Example 357, (S)-6-(4-(4-((2-(6-Oxo-5-(trifluoromethyl)-1,6-dihydropyridazin-4-yl)isoindolin-1-yl)methoxy)picolinoyl)piperazin-1-yl)nicotinonitrile] reads below 100 nM; that for `N#Cc1cccnc1N1CCN(C(=O)c2cccc(OCC3c4ccccc4CN3c3cn[nH]c(=O)c3C(F)(F)F)c2)CC1` (stereo not drawn) [Example 358, 2-(4-(3-((2-(6-Oxo-5-(trifluoromethyl)-1,6-dihydropyridazin-4-yl)isoindolin-1-yl)methoxy)benzoyl)piperazin-1-yl)nicotinonitrile], below 100 nM. Turning to `N#Cc1cccnc1N1CCN(C(=O)c2cccc(OC[C@@H]3c4ccccc4CN3c3cn[nH]c(=O)c3C(F)(F)F)c2)CC1` [Example 359, (S)-2-(4-(3-((2-(6-Oxo-5-(trifluoromethyl)-1,6-dihydropyridazin-4-yl)isoindolin-1-yl)methoxy)benzoyl)piperazin-1-yl)nicotinonitrile], the IC50 is below 100 nM. The result for `N#Cc1cccnc1N1CCN(C(=O)c2cccc(OC[C@H]3c4ccccc4CN3c3cn[nH]c(=O)c3C(F)(F)F)c2)CC1` [Example 360, (R)-2-(4-(3-((2-(6-Oxo-5-(trifluoromethyl)-1,6-dihydropyridazin-4-yl)isoindolin-1-yl)methoxy)benzoyl)piperazin-1-yl)nicotinonitrile] reads at least 1000 nM; that for `N#Cc1cnc(N2CCN(C(=O)c3cccc(OCC4c5ccccc5CN4c4cn[nH]c(=O)c4C(F)(F)F)c3)CC2)nc1` (stereo not drawn) [Example 361, 2-(4-(3-((2-(6-Oxo-5-(trifluoromethyl)-1,6-dihydropyridazin-4-yl)isoindolin-1-yl)methoxy)benzoyl)piperazin-1-yl)pyrimidine-5-carbonitrile], below 100 nM. The result for `CN1CCN(C(=O)c2cccc(OCC3c4ccccc4CN3c3cn[nH]c(=O)c3C(F)(F)F)c2)CC1` (stereo not drawn) [Example 362, 5-(1-((3-(4-Methylpiperazine-1-carbonyl)phenoxy)methyl)isoindolin-2-yl)-4-(trifluoromethyl)pyridazin-3(2H)-one] reads 100 to 1000 nM; that for `O=C(c1cccc(OCC2c3ccccc3CN2c2cn[nH]c(=O)c2C(F)(F)F)c1)N1CCNCC1` (stereo not drawn) [Example 363, 5-(1-((3-(Piperazine-1-carbonyl)phenoxy)methyl)isoindolin-2-yl)-4-(trifluoromethyl)pyridazin-3(2H)-one], at least 1000 nM; that for `N#Cc1cnc(N2CCN(C(=O)c3cccc(OC[C@H]4c5ccccc5CN4c4cn[nH]c(=O)c4C(F)(F)F)c3)CC2)nc1` [Example 364, (R)-2-(4-(3-((2-(6-oxo-5-(trifluoromethyl)-1,6-dihydropyridazin-4-yl)isoindolin-1-yl)methoxy)benzoyl)piperazin-1-yl)pyrimidine-5-carbonitrile], at least 1000 nM. The value for `N#Cc1cnc(N2CCN(C(=O)c3cccc(OC[C@@H]4c5ccccc5CN4c4cn[nH]c(=O)c4C(F)(F)F)c3)CC2)nc1` [Example 365, (S)-2-(4-(3-((2-(6-oxo-5-(trifluoromethyl)-1,6-dihydropyridazin-4-yl)isoindolin-1-yl)methoxy)benzoyl)piperazin-1-yl)pyrimidine-5-carbonitrile] was below 100 nM; that for `N#Cc1cnc(N2CCN(C(=O)c3cccc(OCC4c5ccccc5CN4c4cn[nH]c(=O)c4C(F)(F)F)c3)CC2)cn1` (stereo not drawn) [Example 366, 5-(4-(3-((2-(6-Oxo-5-(trifluoromethyl)-1,6-dihydropyridazin-4-yl)isoindolin-1-yl)methoxy)benzoyl)piperazin-1-yl)pyrazine-2-carbonitrile] was below 100 nM. As to `O=C(c1cccc(OCC2c3ccccc3CN2c2cn[nH]c(=O)c2C(F)(F)F)c1)N1CCn2c(nnc2C(F)(F)F)C1` (stereo not drawn) [Example 367, 4-(Trifluoromethyl)-5-(1-((3-(3-(trifluoromethyl)-5,6,7,8-tetrahydro-[1,2,4]triazolo[4,3-a]pyrazine-7-carbonyl)phenoxy)methyl)isoindolin-2-yl)pyridazin-3(2H)-one], the IC50 was below 100 nM. The result for `O=C(c1cccc(OCC2c3ccccc3CN2c2cn[nH]c(=O)c2C(F)(F)F)c1)N1CCN(c2ccc(C(F)(F)F)cn2)CC1` (stereo not drawn) [Example 368, 4-(Trifluoromethyl)-5-(1-((3-(4-(5-(trifluoromethyl)pyridin-2-yl)piperazine-1-carbonyl)phenoxy)methyl)isoindolin-2-yl)pyridazin-3(2H)-one] reads below 100 nM.

For the origin of these results see patent publication US10550105B2 (Ribon Therapeutics Inc., priority 2018, dated 2020).
